Measured values as given in US8802597B2, “Herbicidal pyrimidines” (E I du Pont de Nemours and Company, priority 2003, dated 2014).
Like-named read-outs stand apart in the source and are kept apart here.

Experiments:
Type in all cases: in vivo
[1] = test system: barnyardgrass (Echinochloa crus-galli); assay: Test A pre/postemergence; conditions: Echinochloa crus-galli, 240 h, read-out: Plant response rating, Barnyardgrass; for pest or weed control at 500 g/ha: 500 g ai/ha; for pest or weed control at 2000 g/ha: 2000 g ai/ha
Procedure, shortened: (§1)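 Visual injury scored 0–100 (0 = no effect, 100 = complete control) against untreated controls after about ten days in the greenhouse. Compounds, formulated in non-phytotoxic solvent plus surfactant, were applied preemergence as a directed soil spray and postemergence at the 1- to 2-leaf stage (2–10 cm).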

[2] = test system: crabgrass (Digitaria sanguinalis); assay: Test A pre/postemergence; conditions: Digitaria sanguinalis, 240 h, read-out: Plant response rating, Crabgrass; for pest or weed control at 500 g/ha: 500 g ai/ha; for pest or weed control at 2000 g/ha: 2000 g ai/ha
Procedure, shortened: as §1

[3] = test system: giant foxtail (Setaria faberi); assay: Test A pre/postemergence; conditions: Setaria faberi, 240 h, read-out: Plant response rating, Foxtail, Giant; for pest or weed control at 500 g/ha: 500 g ai/ha; for pest or weed control at 2000 g/ha: 2000 g ai/ha
Procedure, shortened: as §1

[4] = test system: morningglory (Ipomoea spp.); assay: Test A pre/postemergence; conditions: Ipomoea, 240 h, read-out: Plant response rating, Morningglory; for pest or weed control at 500 g/ha: 500 g ai/ha; for pest or weed control at 2000 g/ha: 2000 g ai/ha
Procedure, shortened: as §1

[5] = test system: redroot pigweed (Amaranthus retroflexus); assay: Test A pre/postemergence; conditions: Amaranthus retroflexus, 240 h, read-out: Plant response rating, Pigweed; for pest or weed control at 500 g/ha: 500 g ai/ha; for pest or weed control at 2000 g/ha: 2000 g ai/ha
Procedure, shortened: as §1

[6] = test system: velvetleaf (Abutilon theophrasti); assay: Test A pre/postemergence; conditions: Abutilon theophrasti, 240 h, read-out: Plant response rating, Velvetleaf; for pest or weed control at 500 g/ha: 500 g ai/ha; for pest or weed control at 2000 g/ha: 2000 g ai/ha
Procedure, shortened: as §1

[7] = test system: cocklebur (Xanthium strumarium); assay: Test C pre/postemergence; conditions: Xanthium strumarium; for pest or weed control at 62 g/ha: 62 g ai/ha; for pest or weed control at 125 g/ha: 125 g ai/ha; for pest or weed control at 250 g/ha: 250 g ai/ha; for pest or weed control at 500 g/ha: 500 g ai/ha
Text: (§2) Seeds or nutlets of plant species selected from bermudagrass (Cynodon dactylon), Surinam grass (Brachiaria decumbens), cocklebur (Xanthium strumarium), corn (Zea mays), crabgrass (Digitaria sanguinalis), woolly cupgrass (Eriochloa villosa), giant foxtail (Setaria faberii), goosegrass (Eleusine indica), johnsongrass (Sorghum halepense), kochia (Kochia scoparia), lambsquarters (Chenopodium album), morningglory (Ipomoea coccinea), eastern black nightshade (Solanum ptycanthum), yellow nutsedge (Cyperus esculentus), pigweed (Amaranthus retroflexus), common ragweed (Ambrosia elatior), soybean (Glycine max), common (oilseed) sunflower (Helianthus annuus), and velvetleaf (Abutilon theophrasti) were planted and treated preemergence with test chemicals formulated in a non-phytotoxic solvent mixture which included a surfactant.
(§3) At the same time, plants selected from these crop and weed species and also winter barley (Hordeum vulgare), blackgrass (Alopecurus myosuroides), canarygrass (Phalaris minor), chickweed (Stellaria media), downy brome (Bromus tectorum), green foxtail (Setaria viridis), Italian ryegrass (Lolium multiflorum), wheat (Triticum aestivum), wild oat (Avena fatua) and windgrass (Apera spica-venti) were treated with postemergence applications of some of the test chemicals formulated in the same manner. Plants ranged in height from 2 to 18 cm (1- to 4-leaf stage) for postemergence treatments. Plant species in the flooded paddy test consisted of rice (Oryza sativa), umbrella sedge (Cyperus difformis), duck salad (Heteranthera limosa) and barnyardgrass (Echinochloa crus-galli) grown to the 2-leaf stage for testing. Treated plants and controls were maintained in a greenhouse for 12 to 14 days, after which time all species were compared to controls and visually evaluated. Plant response ratings, summarized in Table C, are based on a scale of 0 to 100 where 0 is no effect and 100 is complete control. A dash (-) response means no test result.

[8] = test system: crabgrass (Digitaria sanguinalis); assay: Test C pre/postemergence; conditions: Digitaria sanguinalis; for pest or weed control at 62 g/ha: 62 g ai/ha; for pest or weed control at 125 g/ha: 125 g ai/ha; for pest or weed control at 250 g/ha: 250 g ai/ha; for pest or weed control at 500 g/ha: 500 g ai/ha
Text: as §2, §3

[9] = test system: johnsongrass (Sorghum halepense); assay: Test C pre/postemergence; conditions: Sorghum halepense; for pest or weed control at 62 g/ha: 62 g ai/ha; for pest or weed control at 125 g/ha: 125 g ai/ha; for pest or weed control at 250 g/ha: 250 g ai/ha; for pest or weed control at 500 g/ha: 500 g ai/ha
Text: as §2, §3

kochia (Kochia scoparia) = assay: Test C pre/postemergence; conditions: Bassia scoparia; for pest or weed control at 62 g/ha: 62 g ai/ha; for pest or weed control at 125 g/ha: 125 g ai/ha; for pest or weed control at 250 g/ha: 250 g ai/ha; for pest or weed control at 500 g/ha: 500 g ai/ha
Text: as §2, §3

[10] = test system: pigweed (Amaranthus retroflexus); assay: Test C pre/postemergence; conditions: Amaranthus retroflexus; for pest or weed control at 62 g/ha: 62 g ai/ha; for pest or weed control at 125 g/ha: 125 g ai/ha; for pest or weed control at 250 g/ha: 250 g ai/ha; for pest or weed control at 500 g/ha: 500 g ai/ha
Text: as §2, §3

[11] = post-emergence, Postemergence, 0 to 100 scale (0 no effect, 100 complete control)
[12] = pre-emergence, Preemergence, 0 to 100 scale where 0 is no effect and 100 is complete control, approximately ten days
[13] = pre-emergence, Preemergence, 0 to 100 scale (0 no effect, 100 complete control)
[14] = post-emergence, Postemergence, scale 0 to 100 (0 no effect, 100 complete control), read-out: Cocklebur plant response rating
[15] = post-emergence, Postemergence, scale 0 to 100, read-out: Plant response rating, Cocklebur
[16] = pre-emergence, Preemergence, scale 0 to 100, read-out: Plant response rating, Cocklebur
[17] = post-emergence, Postemergence, scale 0 to 100 (0 no effect, 100 complete control), read-out: Crabgrass plant response rating
[18] = post-emergence, Postemergence, scale 0 to 100, read-out: Plant response rating, Crabgrass
[19] = pre-emergence, Preemergence, scale 0 to 100, read-out: Plant response rating, Crabgrass
[20] = post-emergence, Postemergence, scale 0 to 100 (0 no effect, 100 complete control), read-out: Johnsongrass plant response rating
[21] = post-emergence, Postemergence, scale 0 to 100, read-out: Plant response rating, Johnsongrass
[22] = pre-emergence, Preemergence, scale 0 to 100, read-out: Plant response rating, Johnsongrass
[23] = post-emergence, Postemergence, scale 0 to 100 (0 no effect, 100 complete control), read-out: Kochia plant response rating
[24] = post-emergence, Postemergence, scale 0 to 100, read-out: Plant response rating, Kochia
[25] = pre-emergence, Preemergence, scale 0 to 100, read-out: Plant response rating, Kochia
[26] = post-emergence, Postemergence, scale 0 to 100 (0 no effect, 100 complete control), read-out: Pigweed plant response rating
[27] = post-emergence, Postemergence, scale 0 to 100, read-out: Plant response rating, Pigweed
[28] = pre-emergence, Preemergence, scale 0 to 100, read-out: Plant response rating, Pigweed

Structure (SMILES): CCOC(=O)c1nc(C2CC2)nc(N)c1Br [Compound 1, ethyl 6-amino-5-bromo-2-cyclopropyl-4-pyrimidinecarboxylate]
- pest or weed control at 500 g/ha [1, 11]: 75%
- pest or weed control at 2000 g/ha [1, 11]: 75%
- pest or weed control at 500 g/ha [1, 12]: 60%
- pest or weed control at 2000 g/ha [1, 13]: 80%
- pest or weed control at 500 g/ha [2, 11]: 65%
- pest or weed control at 2000 g/ha [2, 11]: 80%
- pest or weed control at 500 g/ha [2, 12]: 25%
- pest or weed control at 2000 g/ha [2, 13]: 75%
- pest or weed control at 500 g/ha [3, 11]: 70%
- pest or weed control at 2000 g/ha [3, 11]: 75%
- pest or weed control at 500 g/ha [3, 12]: 40%
- pest or weed control at 2000 g/ha [3, 13]: 85%
- pest or weed control at 500 g/ha [4, 11]: 95%
- pest or weed control at 2000 g/ha [4, 11]: 100%
- pest or weed control at 500 g/ha [4, 12]: 85%
- pest or weed control at 2000 g/ha [4, 13]: 100%
- pest or weed control at 500 g/ha [5, 11]: 100%
- pest or weed control at 2000 g/ha [5, 11]: 100%
- pest or weed control at 500 g/ha [5, 12]: 85%
- pest or weed control at 2000 g/ha [5, 13]: 100%
- pest or weed control at 500 g/ha [6, 11]: 95%
- pest or weed control at 2000 g/ha [6, 11]: 85%
- pest or weed control at 500 g/ha [6, 12]: 60%
- pest or weed control at 2000 g/ha [6, 13]: 80%
- pest or weed control at 62 g/ha [7, 14]: 90%
- pest or weed control at 125 g/ha [7, 14]: 100%
- pest or weed control at 250 g/ha [7, 15]: 100%
- pest or weed control at 500 g/ha [7, 15]: 100%
- pest or weed control at 62 g/ha ([7]; pre-emergence, Preemergence, scale 0 to 100, 0 no effect, 100 complete control, read-out: Plant response rating, Cocklebur): 90%
- pest or weed control at 125 g/ha [7, 16]: 100%
- pest or weed control at 250 g/ha [7, 16]: 100%
- pest or weed control at 500 g/ha [7, 16]: 100%
- pest or weed control at 62 g/ha [8, 17]: 30%
- pest or weed control at 125 g/ha [8, 17]: 85%
- pest or weed control at 250 g/ha [8, 18]: 85%
- pest or weed control at 500 g/ha [8, 18]: 90%
- pest or weed control at 62 g/ha ([8]; pre-emergence, Preemergence, scale 0 to 100, 0 no effect, 100 complete control, read-out: Plant response rating, Crabgrass): 10%
- pest or weed control at 125 g/ha [8, 19]: 60%
- pest or weed control at 250 g/ha [8, 19]: 90%
- pest or weed control at 500 g/ha [8, 19]: 95%
- pest or weed control at 62 g/ha [9, 20]: 30%
- pest or weed control at 125 g/ha [9, 20]: 30%
- pest or weed control at 250 g/ha [9, 21]: 70%
- pest or weed control at 500 g/ha [9, 21]: 70%
- pest or weed control at 62 g/ha ([9]; pre-emergence, Preemergence, scale 0 to 100, 0 no effect, 100 complete control, read-out: Plant response rating, Johnsongrass): 0%
- pest or weed control at 125 g/ha [9, 22]: 30%
- pest or weed control at 250 g/ha [9, 22]: 80%
- pest or weed control at 500 g/ha [9, 22]: 90%
- pest or weed control at 62 g/ha (kochia (Kochia scoparia); [23]): 100%
- pest or weed control at 125 g/ha (kochia (Kochia scoparia); [23]): 100%
- pest or weed control at 250 g/ha (kochia (Kochia scoparia); [24]): 100%
- pest or weed control at 500 g/ha (kochia (Kochia scoparia); [24]): 100%
- pest or weed control at 62 g/ha (kochia (Kochia scoparia); pre-emergence, Preemergence, scale 0 to 100, 0 no effect, 100 complete control, read-out: Plant response rating, Kochia): 95%
- pest or weed control at 125 g/ha (kochia (Kochia scoparia); [25]): 100%
- pest or weed control at 250 g/ha (kochia (Kochia scoparia); [25]): 100%
- pest or weed control at 500 g/ha (kochia (Kochia scoparia); [25]): 100%
- pest or weed control at 62 g/ha [10, 26]: 90%
- pest or weed control at 125 g/ha [10, 26]: 100%
- pest or weed control at 250 g/ha [10, 27]: 100%
- pest or weed control at 500 g/ha [10, 27]: 100%
- pest or weed control at 62 g/ha ([10]; pre-emergence, Preemergence, scale 0 to 100, 0 no effect, 100 complete control, read-out: Plant response rating, Pigweed): 90%
- pest or weed control at 125 g/ha [10, 28]: 100%
- pest or weed control at 250 g/ha [10, 28]: 100%
- pest or weed control at 500 g/ha [10, 28]: 100%
